Patent US11771735B2, “Composition for improving or preventing nonalcoholic fatty liver” (KOHJIN LIFE SCIENCES CO., LTD., priority 2015, dated 2023)

Experiments:
[1] = test system: subjects who had NAFLD in 31 IU/L or more of ALT; conditions: Case IDs 1 to 9 (group affected); at least one week after initiation; oral 300 mg per day
[2] = test system: Mice (C57/B6J) fed with high-fat food; conditions: 20 weeks old
Excerpt: Mice (C57/B6J, 8 weeks old male) were divided into 4 groups (5 animals each), and the first group (DB) was freely fed with ordinary food (CertifiedDiet “MF” manufactured by Oriental Yeast Co., ltd.). The second group (HFD) was freely fed with high-fat food (High Fat Diet 32, manufactured by CLEA Japan, Inc.), […].
When the mouse was 20 weeks old, the body weight, the liver weight, the serum aspartate aminotransferase (AST), the alanine aminotransferase (ALT), the serum triglyceride (TG), the free fatty acid value (FFA) and the total cholesterol value (T-cho) were measured.

[3] = HFD6 (6 mg/kg/day) and HFD60 (60 mg/kg/day) groups in comparison to HFD group
[4] = high-fat food mice, glutathione 6 and 60 mg/kg/day in water

N[C@@H](CCC(=O)N[C@@H](CS)C(=O)NCC(=O)O)C(=O)O [glutathione]
improvement of ALT after the administration versus before administration (0 wk) [1]: ≥ 20%
serum ALT [2, 3]: significant decrease
serum AST [2, 3]: significant decrease
serum FFA (free fatty acid value) [2, 3]: significant decrease
serum T-cho (total cholesterol value) [2, 3]: significant decrease
serum TG (triglyceride value) [2, 3]: significant decrease
liver weight [2, 4]: the liver weight decreased dependently on the concentration
ratio of liver weight/body weight [2, 4]: decrease of the body weight ratio was also recognized
body weight ([2]; high-fat food mice, glutathione 6 or 60 mg/kg/day in water): decrease of the body weight was recognized
